# Patent US11559517B2, “Promotion of epithelial repair” (Telethon Kids Institute, priority 2018, dated 2023)
# “Also recorded” adds a separate entry of the source.
# Experiments:
# Format in all cases: cell-based, human
# [1] = tested on: pAEC from asthmatic children; assay: Scratch wound repair assay (wound closure), pAEC from asthmatic children; conditions: for accelerated repair compared to DMSO vehicle: 10 μM, 48 hours treatment post wounding; for promotion of pAEC repair relative to celecoxib: screen at 10 μM, cohort not given
# Method: (§1) Two in vitro scratch wound models were used. […] Wound closure was calculated through image analysis by the accompanying live-cell imaging system (Essen Bioscience, Ann Arbor, Mich., USA).
# (§2) To assess in vitro wound repair kinetics, linear scratch wounds were created using a commercial monolayer wounding kit. Once confluent, cell cultures were placed in starvation media (BEGM™ without epidermal growth factor) for about 24 hours prior to wounding. At the time of wounding, cell cultures were treated with compound dilution (10 μM), DMSO vehicle (0.05% v/v) or untreated. Wound closure rates were calculated through image analysis by the accompanying live-cell imaging system (Essen Bioscience, Ann Arbor, Mich., USA).
# [2] = tested on: pAEC from non-asthmatic children; assay: MTS cell viability assay, pAEC from non-asthmatic children
# Method: (§3) Cell viability was assessed using a 3-[4,5-dimethylthiazol-2yl]-5-[3-carboxymethoxyphenyl]-2-[4-sulfophenyl]-2H-tetrazolium inner salt (MTS) assay (Promega).
# Cell viability was assessed using a 3-[4,5-dimethylthiazol-2yl]-5-[3-carboxymethoxyphenyl]-2-[4-sulfophenyl]-2H-tetrazolium inner salt (MTS) assay (Promega, Madison, Wis., USA). […]
# [3] = tested on: pAEC from asthmatic children; assay: MTS cell viability assay, pAEC from asthmatic children
# Method: as §3
# Cell viability was assessed using a 3-[4,5-dimethylthiazol-2yl]-5-[3-carboxymethoxyphenyl]-2-[4-sulfophenyl]-2H-tetrazolium inner salt (MTS) assay (Promega, Madison, Wis., USA). Once confluent, cell cultures were treated with 10 μM compound, DMSO vehicle (0.05% v/v) or untreated for 48 hours.
# [4] = tested on: pAEC from non-asthmatic children; assay: Scratch wound repair assay (wound closure), pAEC from non-asthmatic children; conditions: treated at time of scratch wounding; Wortmannin 0.01-10 μM, MK2206 0.01-5 μM
# Method: as §1, §2
# [5] = tested on: leading edge pAEC from non-asthmatic children; assay: Leading edge cell tracking after scratch wounding, pAEC from non-asthmatic children; conditions: Wortmannin 0.01-10 μM, MK2206 0.01-5 μM
# Method: (§4) Manual Tracking, an ImageJ2 plugin publicly available was utilized for its capacity to manually track cells in two dimensions, the x and y planes. […] The selected cells were tracked over the first 12 h post wounding, where this procedure generated x and y coordinates for the position of the nucleus of each tracked cell at each time point. The x,y coordinates of the tracked cells were exported in a tab delimited format and all tracks were transformed to migrate up towards the y-axis. Graphical representation and analysis of the cell migration parameters was performed using the Chemotaxis and Migration Tool 2.0 (Ibidi®, Martinsried, Bayern, Germany). […] Migration parameters of cell tracks were then quantified including; (1) distance migrated (μm) which represented the displacement of a cell from the start to its endpoint, (2) velocity (μm/min), which is a function of displacement overtime, and (3) directionality (AU), which represents a measurement of the directness or straightness of a cell trajectory and was calculated as a ratio of the cell displacement over the accumulated distance migrated. […] Since directionality is not a direct measure of chemotaxis, the determined forward migration index (FMI) (AU) was then utilized to represent the efficiency of the leading edge cells to migrate towards the center of the wounded area. […]
# Akt (serine residue 473) [6] = assay: In-Cell Western assay of Akt phosphorylation, pAEC from non-asthmatic children; conditions: concentration series (Wortmannin 0.01-10 μM, MK2206 0.01-5 μM); 12 h and 48 h post treatment
# Method: (§5) Cells were plated at 1.2×10^5 cells/cm^2 onto 96-well plates precoated with fibronectin ([…]) and maintained as described earlier. Briefly, following relevant treatments and controls, confluent cell monolayers were fixed with 10% (v/v) NBF for 20 minutes at room temperature and then either permeabilized with 0.1% (v/v) Triton X-100 or incubated with PBS for 25 minutes. Cells were blocked for 90 min at room temperature with the Odyssey® blocking buffer (PBS) (LI-COR Biosciences). Cells were then stained with rabbit anti-human integrin α5 (1:100; clone EPR7854, Abcam), mouse anti-human integrin β1 (1:1000; clone P5D2, Abcam), rabbit anti-human phospho-Akt (Ser473) (1:100; clone D9E, Abcam) or mouse anti-human total Akt (pan) (1:100; clone 40D4, Abcam) for 24 hours at 4° C. Antibody binding was determined using IRDye 800 CW-conjugated goat anti-rabbit IgG (1:800; 925-32211, LI-COR Biosciences) and goat anti-mouse IgG (1:800; 925-32210, LI-COR Biosciences), as well as DRAQ5 (1:10000; DR50200, BioStatus Limited) and Sapphire700 (1:1000; 928-40022, LI-COR Biosciences) for cell number normalization, for 1 hour at RT with gentle shaking in the dark. Specific antibody staining for protein expression was then immediately visualized and quantified using an infrared imaging system (LI-COR Biosciences).
# integrin α5 [7] = assay: On-Cell Western assay of integrin α5 cell membrane expression, pAEC from non-asthmatic children
# Method: as §5
# After this, cells were washed in 1× phosphate-buffered saline (PBS) and incubated with IRDye-conjugated secondary antibody (1:800 goat anti-rabbit and goat anti-mouse IgG, LI-COR Biosciences, Lincoln, Nebr., USA) containing DRAQ5 (1:10000, BioStatus Limited, Shepshed, United Kingdom) and Sapphire700 (1:1000, LI-COR Biosciences, Lincoln, Nebr., USA) for 1 hour at RT with gentle shaking in a dark room. Cells were then washed for an additional five times in PBS. Specific antibody staining for protein expression was then immediately visualized using an infrared imaging system (LI-COR Biosciences, Lincoln, Nebr., USA
# integrin β1 [8] = assay: On-Cell Western assay of integrin β1 cell membrane expression, pAEC from non-asthmatic children; conditions: MK2206; 12 h treatment
# Method: (§6) Cells were plated at 1.2×10^5 cells/cm^2 onto 96-well plates precoated with fibronectin ([…]) and maintained as described earlier. Briefly, following relevant treatments and controls, confluent cell monolayers were fixed with 10% (v/v) NBF for 20 minutes at room temperature and then either permeabilized with 0.1% (v/v) Triton X-100 or incubated with PBS for 25 minutes. Cells were blocked for 90 min at room temperature with the Odyssey® blocking buffer (PBS) (LI-COR Biosciences). Cells were then stained with rabbit anti-human integrin α5 (1:100; clone EPR7854, Abcam), mouse anti-human integrin β1 (1:1000; clone P5D2, Abcam), rabbit anti-human phospho-Akt (Ser473) (1:100; clone D9E, Abcam) or mouse anti-human total Akt (pan) (1:100; clone 40D4, Abcam) for 24 hours at 4° C. Antibody binding was determined using IRDye 800 CW-conjugated goat anti-rabbit IgG (1:800; 925-32211, LI-COR Biosciences) and goat anti-mouse IgG (1:800; 925-32210, LI-COR Biosciences), as well as DRAQ5 (1:10000; DR50200, BioStatus Limited) and Sapphire700 (1:1000; 928-40022, LI-COR Biosciences) for cell number normalization, for 1 hour at RT with gentle shaking in the dark. Specific antibody staining for protein expression was then immediately visualized and quantified using an infrared imaging system (LI-COR Biosciences). […]
# [9] = tested on: leading edge pAEC from asthmatic children; assay: Leading edge cell tracking after scratch wounding, pAEC from asthmatic children; conditions: SC79 0.5-20 μM
# Method: as §4
# Akt (serine residue 473) [10] = assay: In-Cell Western assay of Akt phosphorylation, pAEC from asthmatic children; conditions: SC79 0.5-20 μM; 12 h and 48 h post treatment
# Method: as §5
# integrin α5 [11] = assay: On-Cell Western assay of integrin α5 cell membrane expression, pAEC from asthmatic children; conditions: 0.5, 2 and 5 μM SC79; 12 h and 48 h
# Method: as §6
# integrin β1 [12] = assay: On-Cell Western assay of integrin β1 cell membrane expression, pAEC from asthmatic children; conditions: 0.5, 2 and 5 μM SC79; 12 h and 48 h
# Method: as §6
# [13] = tested on: pAEC from asthmatic children; assay: Scratch wound repair assay (wound closure), pAEC from asthmatic children; conditions: SC79 0.5-20 μM at time of scratch wounding
# [14] = 10 μM, 48 hours, change of less than or equal to 20% relative to DMSO vehicle considered non-cytotoxic
# [15] = 0.01, 0.1, 1 μM (all concentrations bar the highest)
compound,measurement,setting,value
"NS(=O)(=O)c1ccccc1 [Compound C2, Benzenesulfonamide]",accelerated repair compared to DMSO vehicle,[1],no improvement
"Cc1ccc(-c2cc(C(F)(F)F)nn2-c2ccc(S(N)(=O)=O)cc2)cc1 [Compound C3, Celecoxib]",cell viability (MTS),[2]; [14],did not display any change in cell viability
same,cell viability (MTS),[3]; [14],did not display any change in cell viability
same,cell viability (MTS),"[3]; 0.01, 0.1, 1, 10 μM, listed as Celecoxib",did not cause significant cytotoxicity
same,cell viability (MTS),"[3]; 0.01, 0.1, 1, 10 μM, listed as celecoxib",not cytotoxic
"Cc1ccc(C)c(-c2cc(C(F)(F)F)nn2-c2ccc(S(N)(=O)=O)cc2)c1 [Compound C6, 2,5-Dimethyl-Celecoxib]",promotion of pAEC repair relative to celecoxib,[1],comparable efficacy
CC(=NNc1ccc(S(N)(=O)=O)cc1)c1ccc(C)cc1 [Compound C11],accelerated repair compared to DMSO vehicle,[1],no improvement
"CN1C(C(=O)Nc2ccccn2)=C(O)c2ccccc2S1(=O)=O [Compound C13, Piroxicam]",accelerated repair compared to DMSO vehicle,[1],no improvement
"O=C(O)c1cc(/N=N/c2ccc(S(=O)(=O)Nc3ccccn3)cc2)ccc1O [Compound C15, Sulfasalazine]",accelerated repair compared to DMSO vehicle,[1],no improvement
"Nc1ccc(S(N)(=O)=O)cc1 [Compound C17, Sulfanilamide]",accelerated repair compared to DMSO vehicle,[1],no improvement
"Cc1ccc(-c2cc(C(F)(F)F)n[nH]2)cc1 [Compound C19, 3-Trifluoromethy1-5-(p-tolyl)-1H-pyrazole]",accelerated repair compared to DMSO vehicle,[1],no improvement
"CS(=O)(=O)c1ccc(-n2nc(C(F)(F)F)cc2-c2ccc(F)cc2)cc1 [Compound C22, 5-(4-fluorophenyl)-1-[4-(methylsulfonyl)phenyl]-3-(trifluoromethyl)-1H-pyrazole]",promotion of pAEC repair relative to celecoxib,[1],to a greater degree than celecoxib
NC1(c2ccc(-c3nc4ccn5c(=O)[nH]nc5c4cc3-c3ccccc3)cc2)CCC1 [MK2206],cell viability (MTS),[2]; [15],did not cause significant cytotoxicity
same,wound closure rates (effect in words),[4],significant inhibition; also recorded: concentration-dependent reduction in wound closure rates
same,"leading edge cell migration (distance migrated, velocity, directionality, yFMI)",[5],"significant inhibition; also recorded: inhibited distance migrated, velocity, directionality and centrality (yFMI)"
same,activation/phosphorylation of Akt (Ser473),Akt (serine residue 473) [6],significant inhibition; also recorded: inhibited activation of Akt
same,integrin α5 cell membrane expression,"integrin α5 [7]; 1 μM MK2206, 48 h",significant inhibition; also recorded: Significant reduction
same,integrin α5 cell membrane expression,"integrin α5 [7]; MK2206, concentration-dependent, 12 h treatment",concentration-dependent inhibition; also recorded: significant reduction of integrin α5
same,integrin α5 cell membrane expression,"integrin α5 [7]; lower concentrations of MK2206 (below 1 μM), 48 h",not with the lower concentrations
same,integrin β1 cell membrane expression,integrin β1 [8],did not have a significant effect
"CCOC(=O)C1=C(N)Oc2ccc(Cl)cc2C1C(C#N)C(=O)OCC (stereo not drawn) [SC79, 2-Amino-6-chloro-α-cyano-3-(ethoxycarbonyl)-4H-1-benzopyran-4-acetic acid ethyl ester]",cell viability (MTS),"[3]; SC79 0.5, 2, 5, 10, 20 μM",did not alter cell viability; also recorded: did not cause significant cytotoxicity
same,"leading edge cell migration (distance migrated, velocity, directionality, yFMI)",[9],"stimulated leading edge cell migration; also recorded: stimulated distance migrated, velocity, directionality and centrality (yFMI)"
same,phosphorylation of Akt (Ser473),Akt (serine residue 473) [10],augment Akt signaling in a concentration-dependent manner; also recorded: resulted in phosphorylation of Akt
same,integrin α5 cell membrane expression,integrin α5 [11],restored their integrin α5 and β1 expression to equivalent levels to those of non-asthmatic children; also recorded: Significant activation
same,integrin β1 cell membrane expression,integrin β1 [12],restored their integrin α5 and β1 expression to equivalent levels to those of non-asthmatic children; also recorded: Significant activation
same,wound closure rates (effect in words),[13],significantly enhanced wound closure; also recorded: concentration-dependent increase in wound closure rates
COC[C@H]1OC(=O)c2coc3c2[C@@]1(C)C1=C(C3=O)[C@@H]2CCC(=O)[C@@]2(C)C[C@H]1OC(C)=O [Wortmannin],cell viability (MTS),[2]; 10 μM Wortmannin,significant loss of viability
same,cell viability (MTS),[2]; [15],did not have a significant cytotoxic effect; also recorded: did not cause significant cytotoxicity
Cc1ccc(C)c(-c2cc(C(F)(F)F)nn2-c2ccc(S(N)(=O)=O)cc2)c1 [dimethyl-Celecoxib],cell viability (MTS),"[3]; 0.01, 0.1, 1, 10 μM",did not cause significant cytotoxicity
same,cell viability (MTS),"[3]; 0.01, 0.1, 1, 10 μM, listed as dimethyl-celecoxib",not cytotoxic
